The molecules below were run against T1, cGMP-PDE prepared from the swine aeorta (Sus scrofa, UniProt A0A287B475) (assay: Enzyme inhibiting action with the use of cGMP-PDE prepared from the swine aorta). Conditions: CaM-independent cGMP-PDE, 1 mM EGTA, 1 μM cGMP substrate, DMSO 4% or below.
T1 construct: The swine aeorta was sliced; from tissue; host or cells: swine aorta, 100000×g supernatant, DEAE-Toyopearl 650S fraction
Type: biochemical
Description: Enzyme inhibiting action with the use of cGMP-PDE prepared from the swine aeorta
The enzymatic activity of the cGMP-PDE prepared from the swine aeorta was determined according to the method of Thompson et al. ^(1). The enzymatic activity thereof was determined in the presence of 1 mM EGTA by the use of 1 μM cGMP as a substrate. The compound of the present invention was dissolved in DMSO, added to the reaction liquid and examined for the inhibitory activity. The final concentration of DMSO in the reaction liquid was adjusted to 4% or below. (1) Thompson, W. J. and Strada, S. J., Cyclic Nucleotide Phosphodiesterase (PDE), in Methods of Enzymatic Analysis, vol 4, p.127-234, 1984.
The swine aeorta was sliced, followed by the addition of 10 times by volume as much Buffer A (20 mM Tris/HCl, 2 mM Mg acetate, 1 mM Dithiothreitol, 5 mM EDTA, 1400 TIU/liter aprotinin, 10 mg/liter leupeptin, 1 mM benzamidine, 0.2 mM PMSF, pH 7.5). The obtained mixture was homogenized and the homogenate was centrifuged at 100000×g for one hour. The obtained supernatant was supplied a DEAE-Toyopearl 650S (Tosoh, Tokyo, Japan) column. After the column was washed with Buffer B (50 mM Tris/HCl, 0.1 mM EGTA, 2 mM Mg acetate, 1 mM Dithiothreitol, 0.2 mM PMSF, pH 7.5), gradient elution with 0.05 to 0.4M NaCl was conducted. Thus, CaM-independent cGMP-PDE fractions were obtained.

IC50 [µM] | SMILES
0.023 | CCOC(=O)CNc1nc(NCc2ccc3c(c2)OCO3)c2cc(Cl)ccc2n1 [Example 213, 2-(Ethoxycarbonylmethyl)amino-4-(3,4-methylenendioxybenzyl)amino-6-chloroquinazoline]
0.032 | O=C(O)C1CCN(c2cc(NCc3ccc4c(c3)OCO4)c3cc(Cl)ccc3n2)CC1 [Example 255, 2-(4-Carboxypiperidino)-4-(3,4-methylenedioxybenzyl)amino-6chloroquinoline]
0.009 | COc1ccc(CNc2nc(/C=C(\C)C(=O)O)nc3ccc(Cl)cc23)cc1Cl [Example 125, (E)-2-(2-Carboxy-1-propenyl)-4-(3-chloro-4-methoxybenzyl)amino-6-chloroquinazoline]
0.042 | Clc1ccc2ncnc(NCc3ccc(Cl)c(Cl)c3)c2c1 [Example 58, 4-(3,4-Dichlorobenzyl)amino-6-chloroquinazoline]
0.42 | COC1Cc2cc(CNc3ncnc4ccc(Cl)cc34)ccc2O1 (centres unmarked) [Example 61, 4-(2-Methoxy-2,3-dihydrobenzofuran-5-yl)methylamino6-chloroquinazoline]
0.81 | CS(=O)(=O)c1ccc2ncnc(NCc3ccc4c(c3)OCO4)c2c1 [Example 138, 4-(3,4-Methylenedioxybenzyl)amino-6-methysulfonylquinazoline]
0.002 | CNC(=O)Nc1nc(NCc2ccc3c(c2)OCO3)c2cc(Cl)ccc2n1 [Example 202, 2-(Methylcarbamoyl)amino-4-(3,4-methylenedioxybenzyl)amino-6-chloroquinazoline]
0.36 | COc1ccc(CNc2ncnc3c(OC)c(OC)c(OC)cc23)cc1F [Example 22, 4-(3-Fluoro-4-methoxybenzyl)amino-6,7,8-trimethoxyquinazoline]
0.014 | O=C(O)CNc1nc(NCc2ccc3c(c2)OCO3)c2cc(Cl)ccc2n1 [Example 237, 2-(Carboxymethyl)amino-4-(3,4-methylenedioxybenzyl)amino-6-chloroquinazoline]
0.93 | OCc1ccc2ncnc(NCc3ccc4c(c3)OCO4)c2c1 [Example 136]
0.41 | COc1cc2c(NCc3ccc4c(c3)OCO4)nc(N3CCC(C(=O)O)CC3)nc2c(OC)c1OC [Example 231, 2-(4-Carboxypiperidino)-4-(3,4-methylenedioxybenzyl)amino-6,7,8-trimethoxyquinazoline]
0.021 | COc1ccc2nc(CO)nc(NCc3ccc4c(c3)OCO4)c2c1 [Example 139, 2-Hydroxymethyl-4-(3,4-methylenedioxybenzyl)amino-6-methoxyquinazoline]
0.19 | COCCN(Cc1ccc2c(c1)OCO2)c1ncnc2c(OC)c(OC)c(OC)cc12 [Example 42, 4-[N-(2-Methoxyethyl)-(3,4-methylenedioxybenzyl)-amino]-6,7,8-trimethoxyquinazoline]
0.015 | ON=Cc1nc(NCc2ccc3c(c2)OCO3)c2cc(Cl)ccc2n1 [Example 146, 2-Hydroxyiminomethyl-4-(3,4-methylenedioxybenzyl)amino-6-chloroquinazoline]
0.005 | NC(=O)c1nc(NCc2ccc3c(c2)OCO3)c2cc(Cl)ccc2n1 [Example 134, 2-Carbamoyl-4-(3,4-methylenedioxybenzyl)amino-6-chloroquinazoline]
0.049 | N#Cc1ccc2nc(N)nc(NCc3ccc4c(c3)OCO4)c2c1 [Example 201, 2-Amino-4-(3,4-methylenedioxybenzyl)amino-6-cyanoquinazoline]
0.2 | COc1cc2c(NCc3ccc4c(c3)OCO4)nc(Cl)nc2c(OC)c1OC [Example 95, 2-Chloro-4-(3,4-methylenedioxybenzyl)amino-6,7,8-trimethoxyquinazoline]
0.008 | COc1ccc(CNc2nc(/C=C/C(=O)O)nc3ccc(Cl)cc23)cc1Cl [Example 124, (E)-2-(2-carboxyvinyl)-4-(3-chloro-4-methoxybenzyl)amino-6-chloroquinazoline]
0.002 | N#Cc1ccc2nc(OCCCC(=O)O)nc(NCc3ccc4c(c3)OCO4)c2c1 [Example 179, 2-(3-Carboxypropyl)oxy-4-(3,4-methylenedioxybenzyl)amino-6-cyanoquinazoline]
0.004 | CCOC(=O)c1nc(NCc2ccc3c(c2)OCO3)c2cc(Cl)ccc2n1 [Example 107, 2-Ethoxycarbonyl-4-(3,4-methylenedioxybenzyl)amino-6-chloroquinazoline]

IC50 [µM] | SMILES
0.79 | COc1cc2nc(Cl)nc(NCc3ccc4c(c3)OCO4)c2cc1OC [Example 97]
0.031 | C/C(=C/c1nc(NCc2ccc3c(c2)OCO3)c2cc(Cl)ccc2n1)C(=O)O [Example 123, (Z)-2-(2-carboxy-1-propenyl)-4-(3,4-methylenedioxybenzyl)amino-6-chloroquinazoline]
0.24 | COc1ccc2ncnc(NCc3ccc4c(c3)OCO4)c2c1 [Example 46, 4-(3,4-Methylenedioxybenzyl)amino-6-methoxyquinazoline]
0.0072 | CCOC(=O)CON=Cc1nc(NCc2ccc3c(c2)OCO3)c2cc(Cl)ccc2n1 [Example 150, 2-Ethoxycarbonylmethoxyiminomethyl-4-(3,4-methylenedioxybenzyl)amino-6-chloroquinazoline]
0.73 | COc1ccc2ncnc(NCc3ccc4c(c3)OCO4)c2c1OC [Example 72, 4-(4-Methylenedioxybenzyl)amino-5,6-dimethoxyquinazoline]
0.095 | CCCOc1nc(NCc2ccc3c(c2)OCO3)c2cc(OC)c(OC)c(OC)c2n1 [Example 172, 2-Propoxy-4-(3,4-methylenedioxybenzyl)amino-6,7,8-trimethoxyquinazoline]
0.88 | O=C(O)C1CCN(c2nc(NCc3ccc4c(c3)OCO4)c3cccnc3n2)CC1 [Example 262]
0.009 | N#Cc1ccc2nc(N3CCC(C(=O)O)CC3)nc(NCc3ccc4nc[nH]c4c3)c2c1 [Example 244, 2-(4-Carboxypiperidino)-4-(benzimidazol-5-yl)methylamino-6-cyanoquinazoline]
0.0021 | COc1ccc(CNc2cc(N3CCC(C(=O)O)CC3)nc3ccc(Cl)cc23)cc1Cl [Example 256, 2-(4-Carboxypiperidino)-4-(3-chloro-4-methoxybenzyl)amino-6-chloroquinoline]
0.65 | O=C(O)c1nc(NCc2ccc3c(c2)OCO3)c2cc(Cl)ccc2n1 [Example 121, 2-Carboxy-4-(3,4-methylenedioxybenzyl)amino-6-chloroquinazoline]
0.18 | COc1cc2c(N(CCO)Cc3ccc4c(c3)OCO4)nc(Cl)nc2c(OC)c1OC [Example 105, 2-Chloro-4-[N-(2-hydroxyethyl)-(3,4-methylenedioxybenzyl)amino]-6,7,8-trimethoxyquinazoline]
0.00019 | CCOC(=O)C1CCN(c2nc(NCc3ccc(OC)c(Cl)c3)c3cc(C#N)ccc3n2)CC1 [Example 208, 2-(4-Ethoxycarbonylpiperidino)-4-(3-chloro-4-methoxybenzyl)amino-6-cyanoquinazoline]
0.3 | COc1cc2c(NCc3ccc4c(c3)OCO4)nc(/C=C(/C)C(=O)O)nc2c(OC)c1OC [Example 128, (Z)-2-(2-Carboxy-1-propenyl)-4-(3,4-methylenedioxybenzyl)amino-6,7,8-trimethoxyquinazoline]
0.008 | O=C(O)CCCCCNc1nc(NCc2ccc3c(c2)OCO3)c2cc(Cl)ccc2n1 [Example 239, 2-(5-Carboxypentyl)amino-4-(3,4-methylenendioxybenzyl)amino-6-chloroquinazoline]
0.0008 | N#Cc1ccc2nc(-n3ccnc3)nc(NCc3ccc4c(c3)OCO4)c2c1 [Example 193, 2-(Imidazol-1-yl)-4-(3,4-methylenedioxybenzyl)amino-6-cyanoquinazoline]
0.005 | N#Cc1ccc2nc(N3CCOCC3)nc(NCc3ccc4c(c3)OCO4)c2c1 [Example 181, 2-Morpholino-4-(3,4-methylenedioxybenzyl)amino-6-cyanoquinazoline]
0.39 | COc1cc2c(NCc3ccc(Cl)c(Cl)c3)ncnc2c(OC)c1OC [Example 19, 4-(3,4-Dichlorobenzyl)amino-6,7,8-trimethoxyquinazoline]
0.064 | Nc1nc(NCc2ccc3c(c2)OCO3)c2cc(Cl)ccc2n1 [Example 200, 2-Amino-4-(3,4-methylenedioxybenzyl)amino-6-chloroquinazoline]
0.42 | COc1cc2c(NC(C)c3ccc4c(c3)OCO4)ncnc2c(OC)c1OC (stereo not drawn) [Example 38, 4-(α-Methyl-3,4-methylenedioxybenzyl)amino-6,7,8-trimethoxyquinazolin]
0.016 | COc1nc(NCc2ccc3c(c2)OCO3)c2cc(Cl)ccc2n1 [Example 165, 2-Methoxy-4-(3,4-methylenediokybenzyl)amino-6-chloroquinazoline]

SMILES | IC50 [µM]
COCCCCOc1nc(NCc2ccc3c(c2)OCO3)c2cc(Cl)ccc2n1 [Example 175, 2-(4-Methoxybutoxy)-4-(3,4-methylenedioxybenzyl)amino-6-chloroquinazoline] | 0.006

From patent publication US5801180A, “Quinazoline derivatives” (priority 1991, dated 1998)
